Assay results published in the OligoGym collection.
HELM strings list units from the 5' end as sugar, base in round brackets, then linkage (d deoxyribose, r ribose, m 2'-O-methyl, p phosphodiester). Strings are as the collection lists them; they lack the last nucleoside at the 3' end of the tested compound. [moe] = 2'-O-(2-methoxyethyl) (MOE); [sp] = phosphorothioate linkage; [m5C] = 5-methylcytosine

Target: GFAP
Assay: mouse, dose not given
Settings: ASO

Row | Substance | 3 h FOB score
1 | RNA1{[moe]([m5C])[sp].[moe](A)p.[moe]([m5C])p.[moe](G)p.[moe](T)p.[moe]([m5C])p.d(A)[sp].d([m5C])[sp].d(A)[sp].d(T)[sp].d(T)[sp].d([m5C])[sp].d(A)[sp].d([m5C])[sp].d(T)[sp].d(A)[sp].[moe](A)p.[moe](T)[sp].[moe](A)}$$$$ (last 3' nucleoside missing) | 0 score 0-7
2 | RNA1{[moe](G)[sp].[moe](T)p.[moe](G)p.[moe](A)p.[moe](G)[sp].d(G)[sp].d([m5C])[sp].d(T)[sp].d(T)[sp].d(T)[sp].d(T)[sp].d(G)[sp].d(A)[sp].d(G)[sp].d(A)[sp].[moe](T)p.[moe](A)p.[moe](T)[sp].[moe]([m5C])}$$$$ (last 3' nucleoside missing) | 5 score 0-7
3 | RNA1{[moe](G)[sp].[moe](T)p.[moe]([m5C])p.[moe](T)p.[moe](G)[sp].d(A)[sp].d(G)[sp].d(T)[sp].d([m5C])[sp].d(T)[sp].d([m5C])[sp].d(A)[sp].d(G)[sp].d(T)[sp].d(T)[sp].[moe](T)p.[moe](T)p.[moe]([m5C])[sp].[moe]([m5C])}$$$$ (last 3' nucleoside missing) | 7 score 0-7
4 | RNA1{[moe](T)[sp].[moe](T)p.[moe](G)p.[moe](T)p.[moe]([m5C])p.[moe](T)p.d(T)[sp].d(T)[sp].d(A)[sp].d(T)[sp].d(T)[sp].d(T)[sp].d(T)[sp].d(T)[sp].d([m5C])[sp].d([m5C])[sp].[moe](T)p.[moe]([m5C])[sp].[moe](A)}$$$$ (last 3' nucleoside missing) | 4 score 0-7
5 | RNA1{[moe](G)[sp].[moe](G)p.[moe](T)p.[moe](G)p.[moe]([m5C])p.d(T)[sp].d(T)[sp].d(T)[sp].d(T)[sp].d(G)[sp].d([m5C])[sp].d([m5C])[sp].d([m5C])[sp].d([m5C])[sp].d([m5C])[sp].[moe](T)p.[moe](G)p.[moe](T)[sp].[moe](A)}$$$$ (last 3' nucleoside missing) | 3 score 0-7
6 | RNA1{[moe](T)[sp].[moe](T)p.[moe](T)p.[moe](G)p.[moe](T)[sp].d([m5C])[sp].d(T)[sp].d(T)[sp].d(T)[sp].d(A)[sp].d(T)[sp].d(T)[sp].d(T)[sp].d(T)[sp].d(T)[sp].[moe]([m5C])p.[moe]([m5C])p.[moe](T)[sp].[moe]([m5C])}$$$$ (last 3' nucleoside missing) | 0 score 0-7
